Results as given in paper PMC2885440 (Journal of natural products, 2010).

Experiment: Relative polarity on C12 reversed-phase HPLC
Type: physicochemical
Details: C12 reversed-phase HPLC (Jupiter Proteo C12), linear gradient 50–80% MeOH in 0.05% TFA in 50 min

Substance: Lys-Ala-Leu1-Leu2-Trp (lariat or depsi) [Paltolide A]
- polarity among compounds 1–6: most polar
